System: A498 complex spheroid viability
Assay: Anticancer human tumor A498 cell line growth inhibition;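 also: spheroids exposed to agents for seven days before readout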;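 as to viability, T/C: 100% = DMSO vehicle-treated spheroids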
Details: for IC50: curve of first compound; for viability, T/C: stronger effect = lower value
Source text: Multicellular complex tumor spheroid response to LSD1 Inhibitor Iadademstat in combination with a variety of drugs and investigational agents in selected tumor cell lines
The current study was undertaken to assess response to LSD1 inhibitors in combination with standard-of-care drugs and investigational agents in solid tumor complex spheroid models as well as in the K-562 leukemia. Complex spheroids include a stromal component modeled by human endothelial cells (HUVEC) and fibroblasts modeled by human mesenchymal stem cells (MSCs). The concentration ranges selected for each drug and investigational agent were based upon clinically achievable concentrations if the clinical Cmax of the agent was known.
Compounds. The drugs and investigational agents used in this study are listed on Table 1. All of the agents used, including staurosporine (NSC755774) and gemcitabine (NSC613327), were obtained from the Developmental Therapeutics Program, NCI. FDA-approved anticancer drugs are available from the NCI at http://dtp.nci.nih.gov/branches/dscb/oncology_drugset_explanation.html. Drugs and investigational agents were >95% pure by proton nuclear magnetic resonance (NMR) and liquid chromatography/mass spectrometry (LC/MS). Stock solutions were prepared at 400x in DMSO, stored at -70 degrees C, and diluted in fresh medium prior to their use. The final concentration of DMSO in cell culture wells never exceeded 0.25% (v/v). The FDA-approved anticancer drug set is available from the Developmental Therapeutics Program at https://dtp.cancer.gov/organization/dscb/obtaining/available_plates.htm. All drugs and investigational agents were tested over a range starting from a high concentration at or near the clinical Cmax and decreasing in half-log increments. If the clinical Cmax for an agent had not been determined, the highest concentration tested was 10 microM.
Cell Lines. The patient-derived cancer cell (PDC) lines: 292921-168-R-J2-PDC, K24384-001-R-PDC, and 521955-158-R2-J5-PDC pancreatic carcinomas, 556581-035-R-J1 ovarian carcinoma, 324938-238-R-J1-PDC, 855422-203-R-J1-PDC and 883617-216-R-J1-PDC urothelial bladder carcinomas, 743489-274-T-PDC renal cell carcinoma, 138582-R-J1 Merkel cell tumor, K60290-347-R-J1 and K57222-313-R-J1-PDC glioblastomas, 653999-131-R-J2-PDC, LG0703-F948-PDC, and 349418-098-R-PDC non-small cell lung carcinomas, 885512-296-R-J2-PDC, 171881-019-R-J1-PDC breast carcinomas and 186277-243-T-J2-PDC and 233499-124-R-J2-PDC colon carcinomas were obtained from the NCI Patient-Derived Models Repository (PDMR, https://pdmr.cancer.gov). The established cell lines NCI/ADR-RES (RRID:CVCL_14520 and OVCAR-5 (RRID:CVCL_1628) ovarian carcinomas, 786-O (RRID:CVCL_1051) and A498 (RRID:CVCL_A498) renal cell carcinoma, NCI-H211 (ATCC, cat. CRL-5824; RRID:CVCL_1529), NCI-H196 (ATCC, cat. CRL-5823, RRID:CVCL_1509), SW 1271 (ATCC, cat. CRL-2177, RRID:CVCL_1716) and NCI-H1876 (ATCC, cat. CRL-5902, RRID:CVCL_1503) small cell lung carcinomas, MDA-MB-231 (RRID:CVCL_0062) and MDA-MB-468 (RRID:CVCL_0419)breast carcinomas (10-12). Pooled donor human umbilical vein endothelial cells (HUVEC, Lonza, cat. CC-2519) and human mesenchymal stem cells (hMSC, Lonza, cat. PT-2501) were purchased from Lonza (Walkersville, MD).
Cell Culture. All cells were maintained in an incubator at 37 degrees C and 5% CO2 with 95% humidity. The PDC lines were cultured according to standard operating procedures established by the NCI PDMR (https://pdmr.cancer.gov). Briefly all PDCs were thawed and cultured in Matrigel-coated flasks prepared with a working solution of 1X Ham's F-12 nutrient mix, without supplementation (Invitrogen, Waltham, MA, cat. 11765054), 100 U/mL penicillin-streptomycin (Invitrogen, cat. 15140122), and 2.5% Matrigel (Corning Inc., Corning, NY, cat. 354248) for the first three passages. […]

[1] = second compound 0.1 µM, first compound 0.0316 µM
[2] = second compound 0.1 µM, first compound 0.1 µM
[3] = second compound 0.1 µM, first compound 0.316 µM
[4] = second compound 0.1 µM, first compound 1 µM
[5] = second compound 0.316 µM, first compound 0.0316 µM
[6] = second compound 0.316 µM, first compound 0.1 µM
[7] = second compound 0.316 µM, first compound 0.316 µM
[8] = second compound 0.316 µM, first compound 1 µM
[9] = second compound 1 µM, first compound 0.0316 µM
[10] = second compound 1 µM, first compound 0.1 µM
[11] = second compound 1 µM, first compound 0.316 µM
[12] = second compound 1 µM, first compound 1 µM
[13] = second compound 3.16 µM, first compound 0.0316 µM
[14] = second compound 3.16 µM, first compound 0.1 µM
[15] = second compound 3.16 µM, first compound 0.316 µM
[16] = second compound 3.16 µM, first compound 1 µM
[17] = second compound 10 µM, first compound 0.0316 µM
[18] = second compound 10 µM, first compound 0.1 µM
[19] = second compound 10 µM, first compound 0.316 µM
[20] = second compound 10 µM, first compound 1 µM

SMILES | IC50 (second compound 0.1 µM) [µM] | IC50 (second compound 0.316 µM) [µM] | IC50 (second compound 1 µM) [µM] | IC50 (second compound 3.16 µM) [µM] | IC50 (second compound 10 µM) [µM] | viability, T/C [1] [%] | viability, T/C [2] [%] | viability, T/C [3] [%] | viability, T/C [4] [%] | viability, T/C [5] [%] | viability, T/C [6] [%] | viability, T/C [7] [%] | viability, T/C [8] [%] | viability, T/C [9] [%] | viability, T/C [10] [%] | viability, T/C [11] [%] | viability, T/C [12] [%] | viability, T/C [13] [%] | viability, T/C [14] [%] | viability, T/C [15] [%] | other results
Nc1ncn(C2CC(O)C(CO)O2)c(=O)n1 (stereo not given) + NC1CC1c1ccc(-c2cccc(O)c2)cc1 | > 1 | > 1 | > 1 | > 1 | > 1 | 104 | 94.5 | 92.3 | 78.6 | 107 | 97.1 | 93.1 | 68.5 | 110 | 95.7 | 86.1 | 67.3 | 110 | 95.4 | 75.6 | viability, T/C (second compound 0.1 µM, first compound 0.00316 µM): 110%; viability, T/C (second compound 0.1 µM, first compound 0.01 µM): 113%; viability, T/C (second compound 0.316 µM, first compound 0.00316 µM): 118%; viability, T/C (second compound 0.316 µM, first compound 0.01 µM): 120%; viability, T/C (second compound 1 µM, first compound 0.00316 µM): 113%; viability, T/C (second compound 1 µM, first compound 0.01 µM): 114%; viability, T/C (second compound 3.16 µM, first compound 0.00316 µM): 112%; viability, T/C (second compound 3.16 µM, first compound 0.01 µM): 114%; viability, T/C [16]: 63.2%; viability, T/C (second compound 10 µM, first compound 0.00316 µM): 107%; viability, T/C (second compound 10 µM, first compound 0.01 µM): 100%; viability, T/C [17]: 105%; viability, T/C [18]: 101%; viability, T/C [19]: 80.2%; viability, T/C [20]: 60.4%
CC1(C)CCC(CN2CCN(c3ccc(C(=O)NS(=O)(=O)c4ccc(NCC5CCOCC5)c([N+](=O)[O-])c4)c(Oc4cnc5[nH]ccc5c4)c3)CC2)=C(c2ccc(Cl)cc2)C1 + NC1CCC(NC2CC2c2ccccc2)CC1 | 3.67 | 3.89 | 3.47 | 2.71 | 1.97 | 87.7 | 89.2 | 85.5 | 76.4 | 87.2 | 92.6 | 91.3 | 79.1 | 84.5 | 86.2 | 85.1 | 76.9 | 82.5 | 85.5 | 80 | viability, T/C (second compound 0.1 µM, first compound 3.16 µM): 57.5%; viability, T/C (second compound 0.1 µM, first compound 10 µM): 3.91%; viability, T/C (second compound 0.316 µM, first compound 3.16 µM): 60.7%; viability, T/C (second compound 0.316 µM, first compound 10 µM): 4.52%; viability, T/C (second compound 1 µM, first compound 3.16 µM): 54.3%; viability, T/C (second compound 1 µM, first compound 10 µM): 3.45%; viability, T/C [16]: 70.2%; viability, T/C (second compound 3.16 µM, first compound 3.16 µM): 47%; viability, T/C (second compound 3.16 µM, first compound 10 µM): 3.58%; viability, T/C [17]: 81.1%; viability, T/C [18]: 75.2%; viability, T/C [19]: 76.5%; viability, T/C [20]: 65.2%; viability, T/C (second compound 10 µM, first compound 3.16 µM): 39.2%; viability, T/C (second compound 10 µM, first compound 10 µM): 2.98%
